Source: patent US20250312352A1, “GLP-1R MODULATING COMPOUNDS” (Gilead Sciences, Inc., priority 2021, published 2025)

Target: T1, GLP-1R (Homo sapiens, UniProt P43220)
T1 construct: host or cells: CHO cells
Assay: GLP-1R activation cAMP assay (Assay 1 or Assay 2)
Type: cell-based
Settings: cAMP increase in CHO cells stably expressing GLP-1R; compounds run on one of the two cAMP assays
Description: GLP-1R ACTIVATION—cAMP Assay 1
GLP-1R activation by compounds of the present disclosure was quantified by measuring cAMP increase in CHO cells stably expressing GLP-1R (MultiSpan product #C1267-1a). The cells were harvested and plated in growth medium (DMEM/F-12 (Corning product #10-090-CV) supplemented with 10% FBS (HyClone product #SH30071-03), penicillin/streptomycin (Corning product #30-002CI) and 10 μg/ml puromycin (Gibco product #A11138-03)) at 1,000 cells/well in a 384-well plate (Greiner product #781080). The cells were then incubated overnight at 37° C., 5% CO2. The next day, the medium was removed and the cells were washed with DPBS (Corning product #21-031-CM) before adding the assay medium (HBSS, Corning product #21-023-CV) with 20 mM Hepes (Gibco product #15630-080) and 0.1% BSA (Rockland Immunochemicals product #BSA-1000)). Following the medium change, the cells were incubated for 1 hour at 37° C., 5% CO2. The tested GLP-1 compound was added to the cells in a 10-point dose response followed by a 30-minute incubation at 37° C., 5% CO2. cAMP concentration increase was then detected using Cisbio's cAMP Gs Dynamic Kit (product #62AM4PEC) according to the manufacturer's protocol. The response was plotted against the log of the agonist concentration and fitted to a sigmoidal equation to determine the EC50.
GLP-1R ACTIVATION—cAMP Assay 2
GLP-1R activation by small molecule agonists was quantified by measuring cAMP increase in CHO cells stably expressing GLP-1R (MultiSpan product #C1267-1a). 50 nL of agonists were pre-spotted in a 10-point dose response onto 384-well plate (Corning product #CL3826) using the Labcyte Echo System.

T1 sequence (P43220 24-463): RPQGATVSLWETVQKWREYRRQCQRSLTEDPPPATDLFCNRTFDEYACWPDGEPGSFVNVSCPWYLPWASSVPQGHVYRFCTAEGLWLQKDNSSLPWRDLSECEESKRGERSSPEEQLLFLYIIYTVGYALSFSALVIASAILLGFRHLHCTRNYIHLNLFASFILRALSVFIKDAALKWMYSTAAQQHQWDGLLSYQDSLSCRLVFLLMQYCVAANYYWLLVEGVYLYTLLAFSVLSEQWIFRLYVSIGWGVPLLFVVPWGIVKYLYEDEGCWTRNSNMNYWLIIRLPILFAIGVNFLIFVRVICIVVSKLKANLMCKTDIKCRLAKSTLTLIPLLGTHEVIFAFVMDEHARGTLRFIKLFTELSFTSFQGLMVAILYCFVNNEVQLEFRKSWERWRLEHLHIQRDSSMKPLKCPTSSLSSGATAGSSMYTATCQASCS

SMILES	EC50
NC(=O)c1cc(F)c(COc2cccc(-c3cc(F)c(Cc4nc5c(F)cc(C(=O)O)cc5n4C[C@@H]4CCO4)cc3F)n2)cn1 [Example 241, (S)-2-(4-(6-((6-carbamoyl-4-fluoropyridin-3-yl)methoxy)pyridin-2-yl)-2,5-difluorobenzyl)-4-fluoro-1-(oxetan-2-ylmethyl)-1H-benzo[d]imidazole-6-carboxylic acid]	0.12 nM
CC1(C#Cc2cnc(COc3cccc(-c4cc(F)c(Cc5nc6c(F)cc(C(=O)O)cc6n5C[C@@H]5CCO5)cc4F)n3)c(Cl)c2)CC1 [Example 379, (S)-2-(4-(6-((3-chloro-5-((1-methylcyclopropyl)ethynyl)pyridin-2-yl)methoxy)pyridin-2-yl)-2,5-difluorobenzyl)-4-fluoro-1-(oxetan-2-ylmethyl)-1H-benzo[d]imidazole-6-carboxylic acid]	0.303 nM
O=C(O)c1ccc2nc(Cc3cc(F)c(-c4cccc(OCc5ncc(C#Cc6cncs6)s5)n4)cc3F)n(C[C@@H]3CCO3)c2c1 [Example 116, (S)-2-(2,5-difluoro-4-(6-((5-(thiazol-5-ylethynyl)thiazol-2-yl)methoxy)pyridin-2-yl)benzyl)-1-(oxetan-2-ylmethyl)-1H-benzo[d]imidazole-6-carboxylic acid]	0.15 nM
CC(=O)N1CC(Oc2nnc(COc3cccc(-c4cc(F)c(Cc5nc6ccc(C(=O)O)cc6n5C[C@@H]5CCO5)cc4F)n3)s2)C1 [Example 348, (S)-2-(4-(6-((5-((1-acetylazetidin-3-yl)oxy)-1,3,4-thiadiazol-2-yl)methoxy)pyridin-2-yl)-2,5-difluorobenzyl)-1-(oxetan-2-ylmethyl)-1H-benzo[d]imidazole-6-carboxylic acid]	1.87 nM
Cn1ccc(COc2cccc(-c3cc(F)c(Cc4nc5ccc(C(=O)O)cc5n4C[C@@H]4CCO4)cc3F)n2)n1 [Example 124, (S)-2-(2,5-difluoro-4-(6-((1-methyl-1H-pyrazol-3-yl)methoxy)pyridin-2-yl)benzyl)-1-(oxetan-2-ylmethyl)-1H-benzo[d]imidazole-6-carboxylic acid]	0.81 nM
O=C(O)c1ccc2nc(Cc3cc(F)c(-c4cccc(OCc5cc6n(n5)CC(F)(F)C6)n4)cc3F)n(C[C@@H]3CCO3)c2c1 [Example 74, (S)-2-(4-(6-((5,5-difluoro-5,6-dihydro-4H-pyrrolo[1,2-b]pyrazol-2-yl)methoxy)pyridin-2-yl)-2,5-difluorobenzyl)-1-(oxetan-2-ylmethyl)-1H-benzo[d]imidazole-6-carboxylic acid]	0.25 nM
COCCn1c(Cc2cc(F)c(-c3cccc(OCc4ccc(C#CC5CN(C(=O)OC)C5)cc4F)n3)cc2F)nc2ccc(C(=O)O)cc21 [Example 235, 2-[[2,5-difluoro-4-[6-[[2-fluoro-4-[2-(1-methoxycarbonylazetidin-3-yl)ethynyl]phenyl]methoxy]-2-pyridyl]phenyl]methyl]-3-(2-methoxyethyl)benzimidazole-5-carboxylic acid]	1.1 nM
O=C(O)c1ccc2nc(Cc3cc(F)c(-c4cccc(OCc5ncc(-c6cnn(C7COC7)c6)s5)n4)cc3F)n(C[C@@H]3CCO3)c2c1 [Example 80, (S)-2-(2,5-difluoro-4-(6-((5-(1-(oxetan-3-yl)-1H-pyrazol-4-yl)thiazol-2-yl)methoxy)pyridin-2-yl)benzyl)-1-(oxetan-2-ylmethyl)-1H-benzo[d]imidazole-6-carboxylic acid]	0.19 nM
CN1CC(n2cc(-c3ccc(COc4cccc(-c5cc(F)c(Cc6nc7ccc(C(=O)O)cc7n6C[C@@H]6CCO6)cc5F)n4)c(F)c3)nn2)C1 [Example 220, (S)-2-(2,5-difluoro-4-(6-((2-fluoro-4-(1-(1-methylazetidin-3-yl)-1H-1,2,3-triazol-4-yl)benzyl)oxy)pyridin-2-yl)benzyl)-1-(oxetan-2-ylmethyl)-1H-benzo[d]imidazole-6-carboxylic acid]	2.08 nM
Cn1cc(C#Cc2ccc(COc3cccc(-c4cc(F)c(Cc5nc6ccc(C(=O)O)cc6n5C[C@@H]5CCO5)cc4F)n3)nc2Cl)cn1 [Example 358, (S)-2-(4-(6-((6-chloro-5-((1-methyl-1H-pyrazol-4-yl)ethynyl)pyridin-2-yl)methoxy)pyridin-2-yl)-2,5-difluorobenzyl)-1-(oxetan-2-ylmethyl)-1H-benzo[d]imidazole-6-carboxylic acid]	0.243 nM
CCOc1nnc(COc2cc(-c3cc(F)c(Cc4nc5ccc(C(=O)O)cc5n4[C@@H]4COCC4(C)C)cc3C)ccc2F)s1 [Example 260, (S)-1-(4,4-dimethyltetrahydrofuran-3-yl)-2-((3′-((5-ethoxy-1,3,4-thiadiazol-2-yl)methoxy)-4′,5-difluoro-2-methyl-[1,1′-biphenyl]-4-yl)methyl)-1H-benzo[d]imidazole-6-carboxylic acid]	0.254 nM

More lines, in order of falling EC50, values ahead:

EC50	SMILES
10 nM	COCCn1c(Cc2ccc(-c3cccc(OCc4ccc(C#Cc5cnc(N6CC7CCC(C6)N7C6COC6)nc5)cc4F)n3)cc2F)nc2ccc(C(=O)O)cc21 [Example 150, 2-(2-fluoro-4-(6-((2-fluoro-4-((2-(8-(oxetan-3-yl)-3,8-diazabicyclo[3.2.1]octan-3-yl)pyrimidin-5-yl)ethynyl)benzyl)oxy)pyridin-2-yl)benzyl)-1-(2-methoxyethyl)-1H-benzo[d]imidazole-6-carboxylic acid]
5.53 nM	Cn1cc(-n2ccc(COc3cccc(-c4cc(F)c(Cc5nc6ccc(C(=O)O)cc6n5C[C@@H]5CCO5)cc4F)n3)n2)cn1 [Example 82, (S)-2-(2,5-difluoro-4-(6-((1′-methyl-1′H-[1,4′-bipyrazol]-3-yl)methoxy)pyridin-2-yl)benzyl)-1-(oxetan-2-ylmethyl)-1H-benzo[d]imidazole-6-carboxylic acid]
3.38 nM	NC(=O)c1csc(COc2cccc(-c3cc(F)c(Cc4nc5ccc(C(=O)O)cc5n4C[C@@H]4CCO4)cc3F)n2)c1 [Example 131, (S)-2-(4-(6-((4-carbamoylthiophen-2-yl)methoxy)pyridin-2-yl)-2,5-difluorobenzyl)-1-(oxetan-2-ylmethyl)-1H-benzo[d]imidazole-6-carboxylic acid]
0.611 nM	CNC(=O)c1cc(Cl)c(COc2cccc(-c3cc(F)c(Cc4nc5ccc(C(=O)O)cc5n4CC4(CF)CC4)c(F)c3F)c2)cn1 [Example 451, 2-((3′-((4-chloro-6-(methylcarbamoyl)pyridin-3-yl)methoxy)-2,3,5-trifluoro-[1,1′-biphenyl]-4-yl)methyl)-1-((1-(fluoromethyl)cyclopropyl)methyl)-1H-benzo[d]imidazole-6-carboxylic acid]
0.6 nM	Cn1ccc(C#Cc2ccc(COc3cccc(-c4cc(F)c(Cc5nc6ccc(C(=O)O)cc6n5C[C@@H]5CCO5)cc4F)n3)c(F)c2)n1 [Example 134, (S)-2-(2,5-difluoro-4-(6-((2-fluoro-4-((1-methyl-1H-pyrazol-3-yl)ethynyl)benzyl)oxy)pyridin-2-yl)benzyl)-1-(oxetan-2-ylmethyl)-1H-benzo[d]imidazole-6-carboxylic acid]
0.6 nM	N#Cc1ccc(-c2cnc(COc3cccc(-c4cc(F)c(Cc5nc6ccc(C(=O)O)cc6n5C[C@@H]5CCO5)cc4F)n3)s2)cc1 [Example 383, (S)-2-(4-(6-((5-(4-cyanophenyl)thiazol-2-yl)methoxy)pyridin-2-yl)-2,5-difluorobenzyl)-1-(oxetan-2-ylmethyl)-1H-benzo[d]imidazole-6-carboxylic acid]
0.281 nM	O=C(O)c1ccc2nc(Cc3cc(F)c(-c4cccc(OCc5ncc(C#CC6(O)CCC6)s5)n4)cc3F)n(C[C@@H]3CCO3)c2c1 [Example 323, (S)-2-(2,5-difluoro-4-(6-((5-((1-hydroxycyclobutyl)ethynyl)thiazol-2-yl)methoxy)pyridin-2-yl)benzyl)-1-(oxetan-2-ylmethyl)-1H-benzo[d]imidazole-6-carboxylic acid]
0.27 nM	Cc1nnc(COc2cccc(-c3cc(F)c(Cc4nc5ccc(C(=O)O)cc5n4[C@@H]4COCC4(C)C)c(F)c3F)n2)s1 (single isomer, unassigned) [Example 281A]
0.205 nM	O=C(O)c1ccc2nc(Cc3cc(F)c(-c4cccc(OCc5ncc(C#CC6CCC6)s5)n4)cc3F)n(C[C@@H]3CCO3)c2c1 [Example 333, (S)-2-(4-(6-((5-(cyclobutylethynyl)thiazol-2-yl)methoxy)pyridin-2-yl)-2,5-difluorobenzyl)-1-(oxetan-2-ylmethyl)-1H-benzo[d]imidazole-6-carboxylic acid]
0.03 nM	Cn1cc(-c2cnc(COc3nc(-c4cc(F)c(Cc5nc6c(F)cc(C(=O)O)cc6n5C[C@@H]5CCO5)cc4F)ccc3F)s2)cn1 [Example 98, (S)-2-(2,5-difluoro-4-(5-fluoro-6-((5-(1-methyl-1H-pyrazol-4-yl)thiazol-2-yl)methoxy)pyridin-2-yl)benzyl)-4-fluoro-1-(oxetan-2-ylmethyl)-1H-benzo[d]imidazole-6-carboxylic acid]
